Test results: patent US8936941B2, “Compositions useful for cancer detection and treatment, a cancer stem cell model, and methods of production and use thereof” (priority 2008, dated 2015)

How the values were obtained:
DCAMKL-1 [1] = test: siRNA knockdown of DCAMKL-1 in BxPC3 pancreatic cancer cells, real-time RT-PCR; type: cell-based, human
Protocol: (§1) Cell Culture: AsPC-1 and BxPC3 human pancreatic adenocarcinoma cell lines were obtained from the American Type Culture Collection and grown in Dulbecco's modified Eagle medium (DMEM) supplemented with 10% fetal bovine serum and 100 U/mL penicillin-streptomycin in a humidified chamber at 37° C. with 5% CO2.
Silencer RNA: DCAMKL-1 small interfering RNA (siRNA) (si-DCAMKL-1) sequence targeting the coding region of DCAMKL-1 (accession No. NM_004734; SEQ ID NO:1) ([…]tt (SEQ ID NO:3)) and scrambled siRNAs (si-Scr) not matching any of the human genes were obtained (Ambion Inc, Austin, Tex.) and transfected using siPORT™ NeoFX™ (Ambion, Inc).
Real-time Reverse Transcription-Polymerase Chain Reaction Analyses: Total RNA isolated from human pancreatic cancer cells or cells sorted from normal mouse pancreas were subjected to reverse transcription with Superscript II RNase H-Reverse Transcriptase and random hexanucleotide primers (Invitrogen, Carlsbad, Calif.). […] The changes in mRNA were expressed as fold change relative to control with ±SEM value.
miRNA Analysis: total RNA isolated from human pancreatic cancer cell lines or cells sorted from normal mouse pancreas was subjected to reverse transcription with Superscript II RNase H-Reverse Transcriptase and random hexanucleotide primers (Invitrogen). […] The changes in pri-miRNA were expressed as fold change relative to control with ±SEM values.

DCAMKL-1 [2] = test: siRNA knockdown of DCAMKL-1 in HCT116 cells, real-time RT-PCR and Western blot; type: cell-based, human
Protocol: as §1, with “culture. HCT116, HCT116 p21^−/−” for “Culture: AsPC-1”, “SW480” for “BxPC3”, “colon” for “pancreatic”, “Collection (ATCC)” for “Collection”, “eagle's” for “Eagle”
Silencer RNA. DCAMKL-1 siRNA (si-DCAMKL-1) sequence targeting the coding region of DCAMKL-1 (Accession # NM_004734 (SEQ ID NO:1)) ([…] (SEQ ID NO:3)) and scrambled control siRNAs (si-Scr) not matching any of the human genes were obtained (Ambion Inc., Austin, Tex.) and transfected using Transfectol™ (Ambion Inc.).
Real-time reverse transcription-PCR analyses. Total RNA isolated either from cells or from human colon cancer cell tumor xenograft samples was subjected to reverse transcription with Superscript™ II RNase H—Reverse Transcriptase and random hexanucleotide primers (Invitrogen, Carlsbad, Calif.). The cDNA was subsequently used to perform Real-time PCR by SYBR chemistry (SYBR® Green I; Molecular Probes) for specific transcripts using gene specific primers and Jumpstart Taq DNA polymerase (Sigma-Aldrich, St. Louis, Mo.). […] The changes in mRNA were expressed as fold change relative to control with ±SEM value.
miRNA analysis. Total miRNA was isolated using mirVana™ miRNA isolation kit (Ambion Inc.). Total miRNA isolated either from cells or from human colon cancer cell tumor xenograft samples were subjected to reverse transcription with Superscript™ II RNase H—Reverse Transcriptase and random hexanucleotide primers (Invitrogen, Carlsbad, Calif.). The cDNA was subsequently used to perform Real-time PCR by SYBR chemistry (SYBR® Green I; Molecular Probes) for pri-let-7a transcript using specific primers and Jumpstart Taq DNA polymerase (Sigma-Aldrich, St. Louis, Mo.). […] The changes in pri-miRNA were expressed as fold change relative to control with ±SEM value. Primers used are: […]
Western Blot analysis. HCT116 and SW480 cells were cultured in a 6 well plates to 40% confluency and were transfected with si-DCAMKL-1 or si-Scr for 72 h. Cells or the tumor xenograft samples were lysed and the concentration of protein was determined by BCA protein assay kit (Pierce Biotechnology Inc., Rockford, Ill.). Forty μg of the protein was size separated in a 7.5-15% SDS polyacrylamide gel and transferred onto a nitrocellulose membrane with a semidry transfer apparatus (Amersham-Pharmacia, Piscataway, N.J.). The membrane was blocked in 5% non-fat dry milk for 1 h and probed overnight with a rabbit anti-DCAMKL-1 antibody (Abcam Inc., Cambridge, Mass.) or with rabbit anti-c-Myc antibody (Santa Cruz). Subsequently, the membrane was incubated with anti-rabbit or anti-goat IgG horseradish peroxidase-conjugated antibodies (Amersham-Pharmacia) for 1 h at room temperature. The 82 kDa DCAMKL-1 and 49 kDa c-Myc proteins were detected using ECL™ Western Blotting detection reagents (Amersham-Pharmacia). Actin (43 kDa), used as loading control was identified using a goat polyclonal IgG (Santa Cruz Biotechnology Inc., Santa Cruz, Calif.).

PICSCs = test: LIVE/DEAD Viability/Cytotoxicity Assay on PICSCs; type: cell-based, mouse; conditions: 48 hours, single agent
Protocol: This Example is directed to stem cell assays utilizing PICSCs generated in accordance with the presently disclosed and claimed inventive concept(s). The PICSCs were generated as described herein above (i.e., transformation of NIH-3T3 cells with RBM3 gene, followed by transplantation into a nude mouse, then sorting of cells obtained from generated tumors utilizing DCAMKL-1).
The PICSCs were exposed to various compounds/anti-cancer agents, and cell viability assays were then performed using the LIVE/DEAD® Viability/Cytotoxicity Assay from Molecular Probes/Invitrogen (Eugene, Oreg.). The LIVE/DEAD® Viability/Cytotoxicity Assay is an assay that provides a two-color fluorescence cell viability that is based on the simultaneous determination of both live and dead cells.
Briefly, PICSCs cells were grown in a 96 well microtitre plate ([…], Newton, N.C.) to about 40% confluency and treated with anti-cancer agents/compounds for 48 hours. Subsequently, chromogenic substrates Calcein AM and Ethidium homodimer-1 (EthD-1) was added to the cells. Calcein AM is well retained within the live cells, producing uniform green fluorescence in live cells (measured at 515 nM). EthD-1 enters cells with damaged membranes and undergoes an enhancement of fluorescence upon binding to nucleic acids, thereby producing a bright red fluorescence in dead cells (measured at 617 nM). The fluorescence measurement was carried out using a microtitre plate reader (Synergy HT, BIO-TEK, Vinooski, Vt.).
In FIGS. 70-84, the PICSCs were treated with increasing concentrations of various compounds or combinations of compounds for 48 hours, and the data presented therein is represented as a % Dead/Live cells ratio following said treatment. […] Values in each figure are given as average±Standard Error Mean, and asterisks denote statistically significant differences (*p<0.01) compared with control.

Chain of DCAMKL-1 (O15075 other isoform, or with tags, fused parts or gaps): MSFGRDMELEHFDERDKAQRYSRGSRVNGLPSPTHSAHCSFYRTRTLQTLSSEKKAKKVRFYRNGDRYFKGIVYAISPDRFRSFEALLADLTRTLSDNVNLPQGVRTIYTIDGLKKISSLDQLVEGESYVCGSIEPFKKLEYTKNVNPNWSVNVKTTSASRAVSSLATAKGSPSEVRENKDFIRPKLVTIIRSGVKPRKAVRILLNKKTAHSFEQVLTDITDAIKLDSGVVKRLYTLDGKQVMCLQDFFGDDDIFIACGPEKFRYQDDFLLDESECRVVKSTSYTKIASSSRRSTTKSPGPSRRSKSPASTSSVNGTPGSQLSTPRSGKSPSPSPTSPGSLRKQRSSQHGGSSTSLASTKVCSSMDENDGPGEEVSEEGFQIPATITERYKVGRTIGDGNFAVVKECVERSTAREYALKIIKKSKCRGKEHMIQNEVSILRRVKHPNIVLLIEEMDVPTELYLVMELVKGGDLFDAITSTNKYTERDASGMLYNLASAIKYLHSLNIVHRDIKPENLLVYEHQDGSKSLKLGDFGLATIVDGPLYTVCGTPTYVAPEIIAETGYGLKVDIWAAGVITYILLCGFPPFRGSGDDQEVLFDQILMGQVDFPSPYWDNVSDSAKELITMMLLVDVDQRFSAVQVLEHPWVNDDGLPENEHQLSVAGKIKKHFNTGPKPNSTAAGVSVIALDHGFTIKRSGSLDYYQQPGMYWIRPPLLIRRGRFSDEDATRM

Q: With “si-DCAMKL-1: siRNA targeting the coding region of DCAMKL-1 (NM_004734), sequence GGGAGUGAGAACAAUCUAC (SEQ ID NO:3) (chemistry not given here; listed as Homo sapiens)” as the substance, how does the “increase in pri-let-7a miRNA” value (DCAMKL-1 [1]; compared to control and siSCR) read?
A: 3 fold

Q: What about the “Notch1 mRNA” value (DCAMKL-1 [1]; compared to siSCR or control) of the same substance?
A: significant decrease

Q: And the “c-Myc mRNA and protein” value (DCAMKL-1 [2])?
A: Reduction

Q: And the “reduction in Notch-1 mRNA” value (DCAMKL-1 [2])?
A: 40%

Q: And the “Notch-1 and cleaved Notch-1 protein” value (DCAMKL-1 [2]; Western blot)?
A: dose dependent reduction

Q: And the DCAMKL-1 protein (DCAMKL-1 [2]; Western blot, 72 h transfection)?
A: reduction

Q: What about the “reduction in DCAMKL-1 mRNA expression” value (DCAMKL-1 [2]; real-time RT-PCR) of the same substance?
A: > 70%

Q: And the “increase in pri-let-7a miRNA” value (DCAMKL-1 [2]; real-time RT-PCR, compared to controls)?
A: 4 fold

Q: What about the “PICSC cell death (% Dead/Live cells ratio)” value (PICSCs) of the same substance?
A: increasing levels of PICSC cell death
